Test results taken from patent US20180007899A1, “HERBICIDAL COMPOSITIONS COMPRISING OXYFLUORFEN AND HALOXYFOP” (Dow AgroSciences LLC, priority 2012, published 2018).

Tests used:
Experiment in all cases: Post-emergence field trial in onion, visual weed control
Assay type in all cases: in vivo
[1] = test system: annual bluegrass (Poa annua L.), POAAN; details: 15 days after application
Procedure: (§1) Multiple post-emergence field trials were conducted under field conditions in Colombia, Peru and Ecuador. Trial sites were located in commercially grown fields of onion (Allium spp) using standard herbicide small plot research methodology. Post-emergence trial plot size varied from 0.4 to 2 meter (m)×5 to 25 m (width×length) with 4 replicates per treatment. The onion crop was grown using normal cultural practices for fertilization, seeding, watering and maintenance to ensure good growth of the crop and the weeds.
(§2) All treatments in the post-emergence field trials were applied using a backpack compressed carbon dioxide (CO2) sprayer with flat fan nozzles calibrated to apply 400 liters per hectare (L/ha) spray volume at approximately 35 pounds per square inch (psi) nozzle pressure. Commercially available products of oxyfluorfen (GOAL® 480SC 480 grams active ingredient per liter (g ai/L) and haloxyfop-methyl (VERDICT R® 42 g ai/L) were mixed in water at appropriate formulated product rates to achieve the desired rates based on a unit area of application (hectare). Treatments were rated at 7 to 31 days after application (DAA) as compared to the untreated control plants. Visual weed control was scored on a scale of 0 to 100 percent where 0 corresponds to no injury and 100 corresponds to complete kill.
(§3) All treatment results, both for the single product and mixtures, are an average of 4 replicates. The trial sites had naturally occurring populations of weeds. The weed spectrum included, but was not limited to, AMBEL, BIDPI, BRSRA, GASPA, ELEIN, LOLTE, POANN, and SETVE.
(§4) Colby's equation was used to determine the herbicidal effects expected from the mixtures (Colby, S. R. Calculation of the synergistic and antagonistic response of herbicide combinations. Weeds 1967, 15, 20-22.).
(§5) The following equation was used to calculate the expected activity of mixtures containing two active ingredients, A and B:
(§6) A=observed efficacy of active ingredient A at the same concentration as used in the mixture.
(§7) B=observed efficacy of active ingredient B at the same concentration as used in the mixture.

[2] = test system: birdsrape mustard (Brassica rapa), BRSRA
Procedure: as §1, §2, §3, §4, §5, §6, §7

[3] = test system: bristly foxtail (Setaria verticillata), SETVE; details: 7 days after application
Procedure: as §1, §2, §3, §4, §5, §6, §7

[4] = test system: common ragweed (Ambrosia artemisiifolia L.), AMBEL; details: 15 days after application
Procedure: as §1, §2, §3, §4, §5, §6, §7

[5] = test system: goosegrass (Eleusine indica), ELEIN; details: 7 days after application
Procedure: as §1, §2, §3, §4, §5, §6, §7

[6] = test system: hairy beggarticks (Bidens pilosa), BIDPI
Procedure: as §1, §2, §3, §4, §5, §6, §7

[7] = test system: poison ryegrass (Lolium temulentum), LOLTE; details: 15 days after application
Procedure: as §1, §2, §3, §4, §5, §6, §7

[8] = test system: smallflower galinsoga (Galinsoga parviflora), GASPA; details: 15 days after application
Procedure: as §1, §2, §3, §4, §5, §6, §7

[9] = oxyfluorfen 0, haloxyfop-methyl 42 g ai/ha, foliar
[10] = 16 days after application, oxyfluorfen 0, haloxyfop-methyl 42 g ai/ha, foliar
[11] = 31 days after application, oxyfluorfen 0, haloxyfop-methyl 42 g ai/ha, foliar
[12] = oxyfluorfen 120 g ai/ha, haloxyfop-methyl 0, foliar
[13] = oxyfluorfen 240 g ai/ha, haloxyfop-methyl 0, foliar
[14] = oxyfluorfen 360 g ai/ha, haloxyfop-methyl 0, foliar
[15] = 16 days after application, oxyfluorfen 120 g ai/ha, haloxyfop-methyl 0, foliar
[16] = 16 days after application, oxyfluorfen 240 g ai/ha, haloxyfop-methyl 0, foliar
[17] = 16 days after application, oxyfluorfen 360 g ai/ha, haloxyfop-methyl 0, foliar
[18] = 31 days after application, oxyfluorfen 120 g ai/ha, haloxyfop-methyl 0, foliar
[19] = 31 days after application, oxyfluorfen 240 g ai/ha, haloxyfop-methyl 0, foliar
[20] = 31 days after application, oxyfluorfen 360 g ai/ha, haloxyfop-methyl 0, foliar

SMILES: COC(=O)C(C)Oc1ccc(Oc2ncc(C(F)(F)F)cc2Cl)cc1 (stereo not drawn) [Haloxyfop-methyl]
- Visual Control (%) Obs [1, 9]: 5%
- Visual Control (%) Obs [2, 10]: 0%
- Visual Control (%) Obs [2, 11]: 0%
- Visual Control (%) Obs [3, 9]: 77%
- Visual Control (%) Obs [4, 9]: 6%
- Visual Control (%) Obs [5, 9]: 6%
- Visual Control (%) Obs [6, 10]: 0%
- Visual Control (%) Obs [6, 11]: 0%
- Visual Control (%) Obs [7, 9]: 4%
- Visual Control (%) Obs [8, 9]: 6%

SMILES: CCOc1cc(Oc2ccc(C(F)(F)F)cc2Cl)ccc1[N+](=O)[O-] [Oxyfluorfen, 2-chloro-1-(3-ethoxy-4-nitrophenoxy)-4-(trifluoromethyl)benzene]
- Visual Control (%) Obs [1, 12]: 45%
- Visual Control (%) Obs [1, 13]: 45%
- Visual Control (%) Obs [1, 14]: 47%
- Visual Control (%) Obs [2, 15]: 70%
- Visual Control (%) Obs [2, 16]: 74%
- Visual Control (%) Obs [2, 17]: 85%
- Visual Control (%) Obs [2, 18]: 74%
- Visual Control (%) Obs [2, 19]: 79%
- Visual Control (%) Obs [2, 20]: 86%
- Visual Control (%) Obs [3, 14]: 70%
- Visual Control (%) Obs [4, 12]: 21%
- Visual Control (%) Obs [4, 13]: 22%
- Visual Control (%) Obs [4, 14]: 22%
- Visual Control (%) Obs [5, 14]: 47%
- Visual Control (%) Obs [6, 15]: 49%
- Visual Control (%) Obs [6, 16]: 56%
- Visual Control (%) Obs [6, 17]: 69%
- Visual Control (%) Obs [6, 18]: 54%
- Visual Control (%) Obs [6, 19]: 61%
- Visual Control (%) Obs [6, 20]: 69%
- Visual Control (%) Obs [7, 12]: 21%
- Visual Control (%) Obs [7, 13]: 22%
- Visual Control (%) Obs [7, 14]: 22%
- Visual Control (%) Obs [8, 12]: 49%
- Visual Control (%) Obs [8, 13]: 47%
- Visual Control (%) Obs [8, 14]: 45%
